From patent publication US7678795B2, “Pyridazines as 11b-HSD1 inhibitors” (Hoffman-La Roche Inc., priority 2005, dated 2010)

Target: T1, human 11beta-HSD1 (Homo sapiens, UniProt P28845)
T1 construct: made in house; host or cells: HEK293 cells (ATCC CRL-1573), transient transfection; microsomal fraction
Test: Microsome assay (cortisone to cortisol conversion, ELISA-based cortisol detection)
Type: biochemical
Details: microsomes from HEK293 cells transiently expressing human 11beta-HSD1; Cortisone 50-200 nM, NADPH 1 mM; 60 min at 37° C.; read-out: 11-beta-HSD 1 IC50
Protocol: Transient Expression and Partial Purification:
The cDNA encoding the human 11beta-HSD1 protein was cloned into the expression vector pcDNA3 ([…]). This construct (for details see Alex Odermatt et al.; J Biol. Chem.,1999, Vol. 274, Issue 40, 28762-28770) was used to transiently express the protein in HEK293 cells (ATCC number: CRL-1573, described in Graham, F. L., Smiley, J., Russell, W. C., Nairn, R.; (1977)) using lipofectamine. 48 h after transfection cells were washed twice with ice-cold PBS (Phosphate buffered Saline). To 1 volume of cell suspension in PBS 2 volumes of ice-cold lysis buffer (50 mM Tris; pH7.5; 1 mM EDTA; 100 mM NaCl) were added. The cells were lysed by Potter-homogenization (20 strokes). The resulting homogenate was sonicated wit a tip sonicator (10% output; 2×30 sec.) and cleared by a low speed centrifugation (10 min×9000 g; 4° C.). […]
Microsomes isolated from HEK293 cells transiently expressing human 11beta-HSD1 (for details see above) were incubated in assay buffer (100 mM NaCl; 1 mM EDTA; 1 mM EGTA; 1 mM MgCl; 250 mM Sucrose; 20 mM Tris pH 7.4; Cortisone 50-200 nM and NADPH 1 mM) together with different concentrations of test substances. […] The amount of Cortisol produced in this assay was determined using a commercially available, ELISA-based Cortisol-detection kit (Distributed by Assay Design, Inc.). […]

T1 sequence (P28845 whole entry): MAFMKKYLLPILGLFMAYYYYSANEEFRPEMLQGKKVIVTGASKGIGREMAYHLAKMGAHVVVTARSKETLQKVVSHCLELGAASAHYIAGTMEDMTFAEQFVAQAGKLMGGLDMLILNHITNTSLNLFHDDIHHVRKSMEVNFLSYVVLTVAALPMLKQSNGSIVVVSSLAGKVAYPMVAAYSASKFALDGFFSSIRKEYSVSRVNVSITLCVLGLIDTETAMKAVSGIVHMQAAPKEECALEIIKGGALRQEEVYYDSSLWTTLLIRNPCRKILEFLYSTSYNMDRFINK

IC50 [nM] | SMILES
30 | Cc1c(-c2cc3c(nn2)[C@@]2(C)CC[C@@H]3C2(C)C)cnn1-c1ccccc1 [Example 1, (1S,8R)-1,11,11-Trimethyl-5-(5-methyl-1-phenyl-1H-pyrazol-4-yl)-3,4-diaza-tricyclo[6.2.1.0^2,7]undeca-2(7),3,5-triene]
3 | FC(F)(F)c1ccccc1-c1cc2c(nn1)CCCCCC2 [Example 41, 3-(2-Trifluoromethyl-phenyl)-5,6,7,8,9,10-hexahydro-cycloocta[c]pyridazine]
